According to BindingDB's records for doi:10.1111/cbdd.12841 (Zhejiang University of Technology, 2017):

What was measured:
[1] = target: T1, Amine oxidase [flavin-containing] A (Homo sapiens, UniProt P21397); experiment: In vitro MAO-A/B Inhibition Assay
T1 sequence (P21397 whole entry): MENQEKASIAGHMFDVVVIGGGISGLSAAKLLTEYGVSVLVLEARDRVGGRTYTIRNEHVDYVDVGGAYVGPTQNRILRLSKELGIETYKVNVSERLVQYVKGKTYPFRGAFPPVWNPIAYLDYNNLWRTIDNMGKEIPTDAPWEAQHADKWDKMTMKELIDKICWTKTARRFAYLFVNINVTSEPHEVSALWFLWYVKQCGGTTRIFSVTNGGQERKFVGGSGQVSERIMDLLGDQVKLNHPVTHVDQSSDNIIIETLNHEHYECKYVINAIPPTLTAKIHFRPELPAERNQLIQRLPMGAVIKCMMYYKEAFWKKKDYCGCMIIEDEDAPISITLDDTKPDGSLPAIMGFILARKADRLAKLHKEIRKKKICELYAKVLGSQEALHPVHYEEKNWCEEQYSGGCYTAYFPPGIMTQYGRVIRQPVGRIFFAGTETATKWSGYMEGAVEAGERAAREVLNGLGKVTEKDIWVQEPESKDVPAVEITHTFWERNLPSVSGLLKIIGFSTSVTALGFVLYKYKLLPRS
Procedure: (§1) The inhibitory activities of flavones were determined in vitro by using fluorescent probe method following the general procedure described in the literature. [Li et al., Nat. Commun., 5:3276]

[2] = target: T2, Amine oxidase [flavin-containing] B (Homo sapiens, UniProt P27338); experiment: In vitro MAO-A/B Inhibition Assay
T2 sequence (P27338 whole entry): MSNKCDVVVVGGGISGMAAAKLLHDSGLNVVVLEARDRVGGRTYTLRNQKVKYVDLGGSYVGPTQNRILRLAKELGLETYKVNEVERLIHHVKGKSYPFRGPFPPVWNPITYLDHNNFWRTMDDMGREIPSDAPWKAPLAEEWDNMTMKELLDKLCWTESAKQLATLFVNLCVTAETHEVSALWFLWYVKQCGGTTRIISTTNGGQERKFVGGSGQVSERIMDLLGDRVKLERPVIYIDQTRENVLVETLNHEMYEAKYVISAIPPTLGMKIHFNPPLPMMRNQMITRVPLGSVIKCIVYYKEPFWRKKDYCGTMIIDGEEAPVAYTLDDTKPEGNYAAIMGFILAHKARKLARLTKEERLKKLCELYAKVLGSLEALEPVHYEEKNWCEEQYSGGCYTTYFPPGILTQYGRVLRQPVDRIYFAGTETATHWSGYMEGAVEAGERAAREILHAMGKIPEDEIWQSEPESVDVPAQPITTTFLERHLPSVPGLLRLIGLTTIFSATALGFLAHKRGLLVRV
Procedure: as §1

IC50 [1] | IC50 [2] | Compound
334 µM | 176 µM | O=c1cc(-c2ccccc2)oc2ccc(Cn3nncc3CNc3ccc(Cl)cc3)cc12 [6-((5-(((4-chlorophenyl)amino)methyl)-1H-1,2,3-triazol-1-yl)methyl)-2-phenyl-4H-chromen-4-one (Az2k1)]
738 µM | 134 µM | O=C(CCc1cn(Cc2ccc3oc(-c4ccccc4)cc(=O)c3c2)nn1)Nc1ccc(F)cc1 [N-(4-fluorophenyl)-3-(1-((4-oxo-2-phenyl-4H-chromen-6-yl)methyl)-1H-1,2,3-triazol-4-yl)propanamide (Az1k6)]
541 µM | 86 µM | Cc1ccc(C(=O)NCc2cn(Cc3ccc4oc(-c5ccc(Cl)cc5)cc(=O)c4c3)nn2)cc1 [N-((1-((2-(4-chlorophenyl)-4-oxo-4H-chromen-6-yl)methyl)-1H-1,2,3-triazol-4-yl)methyl)-4-methylbenzamide (Az2k2)]
184 µM | 111 µM | O=C(NCc1cn(Cc2ccc3oc(-c4ccccc4)cc(=O)c3c2)nn1)c1ccccc1 [N-((1-((4-oxo-2-phenyl-4H-chromen-6-yl)methyl)-1H-1,2,3-triazol-4-yl)methyl)benzamide (Az1k1)]
